Measurements: publication PMC8379256, “A xanthene derivative, DS20060511, attenuates glucose intolerance by inducing skeletal muscle-specific GLUT4 translocation in mice” (Communications Biology, 2021)
Values joined by “and” are separate entries in the source; they are usually repeats but may differ in a detail not shown here. Equal values may be shown once.

How the values were obtained:
WT and eNOSKO mice = assay: Oral GTT in wild-type and eNOS-knockout mice; assay type: in vivo, mouse; conditions: for Blood glucose: Glucose tolerance test, Wildtype, 10 mg/kg, individual animals
Description: Fig. 7 DS20060511 treatment decreases blood glucose levels in both WT and eNOSKO mice during oral GTT and ITT. a, b Blood glucose levels during oral GTT in wild-type (WT, n = 5) and eNOS-knockout (KO, n = 5–6) mice. Mice received vehicle or DS20060511 (10 mg kg^−1) orally 15 min before the glucose administration (3.0 g kg^−1). c, d Blood glucose levels during ITT in WT (n = 4) and KO (n = 5) mice. Vehicle or DS20060511 (30 mg kg^−1) was given orally at the same time as 0.5 U kg^−1 insulin injection intraperitoneally. Values shown are means ± SEM. *P < 0.05, **P < 0.01, ***P < 0.001 vs. vehicle by the t-test.
C57BL/6 and db/db mice were purchased from CLEA Japan, Tokyo, Japan. GLUT4- knockout mice were generated at RIKEN BioResource Center, Tsukuba, Japan, according to a previously described method. eNOS-knockout mice were kindly provided by Dr. Masato Tsutsui[41],[42]. The mice were group-housed under controlled illumination (12:12 h light-dark cycle) and temperature (23 ± 2 °C) conditions and given free access to normal chow and water, unless otherwise specified. The HFD-fed obese mice were prepared by feeding C57BL/6 mice a HFD for at least 8 weeks from 6 weeks of age. […] Male mice were used for all the experiments in this study. The animal care and experimental procedures used in the study were approved by The University of Tokyo Animal Care Committee (Approval number: 27-3), and the study was carried out in accordance with the Animal Experimentation Guidelines of Daiichi Sankyo Co., Ltd (Approved number: 20000411).
Mice that had been denied access to food overnight received the indicated oral dose of DS20060511 or vehicle 15 min prior to the glucose load (1.5 g kg^−1, except for eNOS-knockout mice, which received 3.0 g kg^−1). Then, after the oral glucose load, the blood glucose levels were measured using Glutest Every in samples obtained from the tail vein at the indicated timepoints. Plasma insulin concentrations were also measured with an ELISA kit (Morinaga Institute of Biological Science, Yokohama, Japan) in blood samples collected from the tail vein at the indicated timepoints.

AMPKα = AMPKα phosphorylation in triceps surae muscle in vivo; set-up: species or system mouse; conditions: no-exercise condition, 10 mg kg−1, Fig. 6c
Description: The tissue sample was homogenized with a Polytron homogenizer and lysed in a lysis buffer (25 mM Tris-HCl, pH 7.4, 100 mM NaF, 50 mM Na4P2O7, 10 mM EGTA, 10 mM EDTA, 10 mM Na3VO4, 1 mM PMSF, and 1% NP-40) on ice, and the lysate was centrifuged at 17,860 × g for 10 min at 4 °C. The supernatant was collected and the protein concentrations were determined by BCA assay (Thermo Fisher Scientific). Immunoprecipitation of IRβ and IRS1 was performed as described previously, using specific antibodies against IRβ (sc-711, Santa Cruz Biotechnology, Dallas, TX), IRS1 (06-248, Merck Millipore, Burlington, MA), and for detection of phosphotyrosine (05-321, Merck Millipore). Five milligrams of the extracts were incubated with specific antibodies against IRS1 for 1 h at 4 °C. Then, protein G-Sepharose was added, followed by incubation for 2 h at 4 °C. After washing three times, the immunocomplexes were subjected to immunoblotting.
Phosphorylated or total protein of IRβ and IRS1 was resolved on 7% SDS-PAGE and analyzed using specific antibodies against IRβ, IRS1, and phosphotyrosine. […] Bound antibodies were detected with HRP-conjugated secondary antibodies using ECL detection reagents (GE Healthcare, Chicago, IL).

COc1ccc2c(C)c(C(=O)O)ccc2c1C1C2=C(CC(C)(C)CC2=O)OC2=C1C(=O)CC(C)(C)C2 [DS20060511]
Blood glucose (WT and eNOSKO mice; 0 min): 96 mg/dL and 111 mg/dL and 104 mg/dL and 93 mg/dL and 82 mg/dL
Blood glucose (WT and eNOSKO mice; 15 min): 260 mg/dL and 212 mg/dL and 232 mg/dL and 229 mg/dL and 231 mg/dL and 181 mg/dL
Blood glucose (WT and eNOSKO mice; 30 min): 253 mg/dL and 242 mg/dL and 215 mg/dL and 185 mg/dL and 284 mg/dL and 213 mg/dL
Blood glucose (WT and eNOSKO mice; 60 min): 212 mg/dL and 210 mg/dL and 226 mg/dL and 281 mg/dL and 196 mg/dL
Blood glucose (WT and eNOSKO mice; 90 min): 159 mg/dL and 172 mg/dL and 132 mg/dL and 150 mg/dL and 218 mg/dL and 154 mg/dL
Blood glucose (WT and eNOSKO mice; 120 min): 120 mg/dL and 128 mg/dL and 115 mg/dL and 130 mg/dL and 170 mg/dL and 127 mg/dL
Blood glucose (WT and eNOSKO mice; -15 min): 79 mg/dL and 94 mg/dL and 75 mg/dL and 91 mg/dL and 73 mg/dL and 81 mg/dL
blood glucose levels during oral GTT (in words) (WT and eNOSKO mice; WT and eNOSKO mice, 10 mg kg−1 po): significantly decreased blood glucose levels in both the WT and eNOSKO mice
AMPK phosphorylation level in the skeletal muscle (AMPKα): remained unchanged
